The values below come from ChEMBL document CHEMBL1201862, “PubChem BioAssay data set” (2004).

A short description of assay [1]: NIH3T3 cell viability loss – ATP luminescence, mouse fibroblasts, counter-screen, dose response (AID 2010).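 Note: cells exposed to compound for about 90 hours before reading.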 In kind it is functional, cell-based.
The target of assay [2] is Mitochondrial peptide methionine sulfoxide reductase (Bos taurus, UniProt P54149). In words: Absorbance-based biochemical high throughput dose response assay for activators of Methionine sulfoxide reductase A (MsrA). The format is functional.
Assay [3] can be described thus: Trypanosoma cruzi growth suppression in host cells – NIH3T3 host cells, beta-gal luminescence, confirmation (AID 2044).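 Note: intracellular parasites grown in NIH/3T3 mouse fibroblasts as host cells; luminescent beta-galactosidase reporter signal from transgenic T. cruzi replicating inside host cells; inhibitors lower the luminescence signal.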 In kind it is functional, cell-based.
The target of assay [4] is Heat shock protein HSP 90-alpha (Homo sapiens, UniProt P07900). The format is functional, organism-based.
Assay [5] concerns the target T1, Mannose-6-phosphate isomerase (Homo sapiens, UniProt P34949).
T1 sequence (P34949 whole entry): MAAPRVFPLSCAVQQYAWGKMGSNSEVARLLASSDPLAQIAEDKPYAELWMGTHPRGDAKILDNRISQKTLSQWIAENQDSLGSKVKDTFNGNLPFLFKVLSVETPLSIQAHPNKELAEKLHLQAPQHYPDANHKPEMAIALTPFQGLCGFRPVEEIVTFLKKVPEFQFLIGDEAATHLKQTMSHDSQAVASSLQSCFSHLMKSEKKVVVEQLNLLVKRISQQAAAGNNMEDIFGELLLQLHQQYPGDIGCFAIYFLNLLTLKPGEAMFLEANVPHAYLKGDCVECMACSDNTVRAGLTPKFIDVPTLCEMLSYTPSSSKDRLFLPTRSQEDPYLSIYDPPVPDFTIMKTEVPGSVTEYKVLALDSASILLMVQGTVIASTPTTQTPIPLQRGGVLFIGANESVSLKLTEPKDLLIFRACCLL
The assay is described as follows: MPI inhibition at elevated mannose 6-phosphate – biochemical, fluorescence intensity, high mannose 6-phosphate, primary screen (AID 1220).

The nature of assay [6]: inhibition of ARNT PAS-B/TACC3 complex formation – biochemical, AlphaScreen, cherry-picked samples, confirmation (AID 651703).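 Note: His-tagged ARNT PAS-B domain paired with GST-TACC3 E629A dimer coactivator fragment; potency of inhibitors that break up the complex and lower AlphaScreen signal.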 In kind it is functional, Homo sapiens. (In general: Bead proximity is the source of the signal in Alpha formats.)
A further assay addresses Cytochrome P450 2C19 (Homo sapiens, UniProt P33261). The assay is described as follows: Cytochrome panel assay with activity outcomes. Panel member name: p450-cyp2c19 Compounds with AC50 equal or less than 10 uM are considered active. The format is functional. Particulars: read-out: AC50.
For the next assay, the target named is Cytochrome P450 2C9 (Homo sapiens, UniProt P11712).
The target of assay [7] is T2, Neuropeptides B/W receptor type 1 (Homo sapiens, UniProt P48145).
T2 sequence (P48145 whole entry): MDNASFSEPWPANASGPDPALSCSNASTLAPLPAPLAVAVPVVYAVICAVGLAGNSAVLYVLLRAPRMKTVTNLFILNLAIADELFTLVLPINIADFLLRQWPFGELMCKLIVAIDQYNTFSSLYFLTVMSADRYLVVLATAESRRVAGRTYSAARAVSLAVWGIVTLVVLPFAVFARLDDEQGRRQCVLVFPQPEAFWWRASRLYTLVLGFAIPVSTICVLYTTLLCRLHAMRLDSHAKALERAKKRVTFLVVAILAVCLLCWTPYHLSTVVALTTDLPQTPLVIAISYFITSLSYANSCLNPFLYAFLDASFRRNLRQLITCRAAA
In words: human NPBW1 receptor blockade, IC50 – cell-based, fluorescence, dose response, set 6, late-stage follow-up (AID 588583). In kind it is functional.

Assay [8] has as its target Melanin-concentrating hormone receptor 1 (Homo sapiens, UniProt Q99705). The assay is described as follows: Late-stage fluorescence-based counterscreen for antagonists of the G-protein coupled receptor 7 (GPR7): cell-based dose response assay to identify antagonists of the melanin-concentrating hormone receptor 1 (MCHR1) Set 6. In kind it is functional. (In general: Counterscreens check selectivity or assay interference.)

For assay [9], the target named is T3, Melanocortin receptor 4 (Homo sapiens, UniProt P32245). In words: inhibitors of MC4R cAMP signaling – cell-based, TR-FRET, biased antagonists, dose response (AID 602298).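 Note: antagonist potency against agonist-stimulated cAMP production.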 In kind it is functional. A general note: TR-FRET usually uses a lanthanide donor and a delayed reading to cut background.
The nature of assay [10]: cAMP pathway inhibition in counterscreen cell line – TR-FRET cAMP detection, counter-screen for MC4R biased antagonist project, dose response (AID 602305).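 Note: U2OS cells stimulated with forskolin near its EC80 as the cAMP inducer; potency is for inhibition of forskolin-stimulated cAMP signaling.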 The format is functional, cell-based.
Assay [11] concerns the target Proto-oncogene tyrosine-protein kinase receptor Ret (Homo sapiens, UniProt P07949). In kind it is functional.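 Note: measured within a kinome-wide profiling panel, RET as the panel member.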
The next assay concerns the target Cytochrome P450 2D6 (Homo sapiens, UniProt P10635).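 Note: CYP2D6 member of a cytochrome P450 panel assay.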
The target in assay [12] is T4, Low molecular weight phosphotyrosine protein phosphatase (Homo sapiens, UniProt P24666).
T4 sequence (P24666 whole entry): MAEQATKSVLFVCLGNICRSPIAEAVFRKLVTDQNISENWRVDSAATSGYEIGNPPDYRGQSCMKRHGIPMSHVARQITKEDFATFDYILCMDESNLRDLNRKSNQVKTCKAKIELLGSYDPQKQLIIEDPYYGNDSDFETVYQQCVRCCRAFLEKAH
The format is functional. Particulars: read-out: IC50_Mean.

The target of a further assay is Cytochrome P450 3A4 (Homo sapiens, UniProt P08684).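 Note: CYP3A4 tested as one member of a cytochrome P450 panel screen.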
Assay [13] addresses T4, Low molecular weight phosphotyrosine protein phosphatase. In kind it is functional. The following applies: read-out: IC50_Mean. This is another data set of the same source.
Assay [14] concerns the target Ras and Rab interactor 1/Tyrosine-protein kinase ABL1 (Homo sapiens, UniProt P00519+Q13671). The format is functional.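 Note: biochemical TR-FRET dose-response test measuring inhibition of binding between Rin1 and Abl proteins.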
Assay [15] deals with T3, Melanocortin receptor 4. In kind it is functional, cell-based.
Another assay deals with Aurora kinase B (Homo sapiens, UniProt Q96GD4). In kind it is functional.
A further assay concerns the target Aurora kinase A (Homo sapiens, UniProt O14965). The format is functional.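 Note: value from the Navigating the Kinome kinase panel profiling, panel entry STK6.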
For assay [16], the target named is Aryl hydrocarbon receptor (Homo sapiens, UniProt P35869). The following applies: Potency.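 Note: confirmatory quantitative high-throughput screen measuring activation of the AhR signaling pathway.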
Assay [17] concerns the target DNA dC->dU-editing enzyme APOBEC-3A (Homo sapiens, UniProt P31941). In words: SAR analysis of small molecule inhibitors of APOBEC3A DNA Deaminase via a fluorescence-based single-stranded DNA deaminase assay. In kind it is functional. The following applies: read-out: IC50_Mean.
The target in assay [18] is DNA dC->dU-editing enzyme APOBEC-3G (Homo sapiens, UniProt Q9HC16). In words: inhibition of APOBEC3G ssDNA deamination – biochemical, fluorescence, single-stranded DNA substrate, SAR follow-up (AID 602136). In kind it is functional. The following applies: read-out: IC50_Mean.

Structures are written as SMILES. Active and inactive are the calls of the source.

T3 sequence (P32245 whole entry): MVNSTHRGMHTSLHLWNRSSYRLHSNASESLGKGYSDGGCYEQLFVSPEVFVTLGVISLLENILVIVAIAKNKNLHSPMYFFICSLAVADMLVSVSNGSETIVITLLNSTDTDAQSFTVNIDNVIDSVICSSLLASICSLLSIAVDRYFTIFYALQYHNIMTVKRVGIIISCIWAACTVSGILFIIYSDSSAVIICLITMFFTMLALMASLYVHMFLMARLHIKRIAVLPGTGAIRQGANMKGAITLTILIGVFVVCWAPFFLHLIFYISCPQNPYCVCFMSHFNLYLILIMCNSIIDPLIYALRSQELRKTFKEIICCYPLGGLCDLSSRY
Melanin-concentrating hormone receptor 1, sequence (Q99705 whole entry): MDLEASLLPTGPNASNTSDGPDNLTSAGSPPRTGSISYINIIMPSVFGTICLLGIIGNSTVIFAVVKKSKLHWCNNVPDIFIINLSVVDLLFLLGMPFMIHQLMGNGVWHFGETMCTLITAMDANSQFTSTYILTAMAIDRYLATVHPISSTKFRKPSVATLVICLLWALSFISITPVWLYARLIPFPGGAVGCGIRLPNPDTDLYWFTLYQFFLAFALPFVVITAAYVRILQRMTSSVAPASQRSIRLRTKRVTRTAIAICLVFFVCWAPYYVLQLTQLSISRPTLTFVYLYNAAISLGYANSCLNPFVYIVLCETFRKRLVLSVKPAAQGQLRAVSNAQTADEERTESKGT
Cytochrome P450 2D6, sequence (P10635 whole entry): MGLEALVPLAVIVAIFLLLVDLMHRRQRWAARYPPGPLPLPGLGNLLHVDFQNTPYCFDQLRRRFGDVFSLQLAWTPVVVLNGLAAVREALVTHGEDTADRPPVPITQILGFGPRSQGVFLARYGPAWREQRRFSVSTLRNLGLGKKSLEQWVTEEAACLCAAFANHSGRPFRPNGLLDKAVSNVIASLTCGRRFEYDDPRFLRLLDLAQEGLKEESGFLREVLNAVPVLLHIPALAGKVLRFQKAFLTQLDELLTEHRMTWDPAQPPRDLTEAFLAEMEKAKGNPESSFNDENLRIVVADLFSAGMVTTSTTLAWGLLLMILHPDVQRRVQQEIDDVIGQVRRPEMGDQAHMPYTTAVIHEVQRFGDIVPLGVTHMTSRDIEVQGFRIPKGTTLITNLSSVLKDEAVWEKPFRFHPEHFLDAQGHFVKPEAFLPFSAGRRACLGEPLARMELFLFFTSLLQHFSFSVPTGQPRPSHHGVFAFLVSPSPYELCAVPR
Aryl hydrocarbon receptor, sequence (P35869 whole entry): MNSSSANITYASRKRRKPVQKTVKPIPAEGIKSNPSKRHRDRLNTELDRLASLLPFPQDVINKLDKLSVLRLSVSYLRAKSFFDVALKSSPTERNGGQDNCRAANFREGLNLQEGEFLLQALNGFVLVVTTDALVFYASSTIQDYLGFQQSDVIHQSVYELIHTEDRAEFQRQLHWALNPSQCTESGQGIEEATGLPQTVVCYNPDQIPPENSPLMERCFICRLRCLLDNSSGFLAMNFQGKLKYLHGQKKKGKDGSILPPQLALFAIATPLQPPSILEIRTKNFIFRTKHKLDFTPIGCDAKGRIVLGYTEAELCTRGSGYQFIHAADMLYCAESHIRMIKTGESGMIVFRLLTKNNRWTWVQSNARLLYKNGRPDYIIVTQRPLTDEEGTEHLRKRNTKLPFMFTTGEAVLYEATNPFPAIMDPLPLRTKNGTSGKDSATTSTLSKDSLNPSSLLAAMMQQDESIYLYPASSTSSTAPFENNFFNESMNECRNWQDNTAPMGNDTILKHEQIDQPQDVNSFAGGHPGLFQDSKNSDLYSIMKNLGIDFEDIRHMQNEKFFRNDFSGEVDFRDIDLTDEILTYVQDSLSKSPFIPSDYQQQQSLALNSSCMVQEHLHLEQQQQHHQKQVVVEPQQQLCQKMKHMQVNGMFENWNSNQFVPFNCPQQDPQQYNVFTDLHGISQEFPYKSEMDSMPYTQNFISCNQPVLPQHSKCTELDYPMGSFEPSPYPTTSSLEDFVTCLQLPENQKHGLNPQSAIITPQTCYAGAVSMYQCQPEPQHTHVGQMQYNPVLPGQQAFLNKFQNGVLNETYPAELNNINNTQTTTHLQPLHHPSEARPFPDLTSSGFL
Aurora kinase B, sequence (Q96GD4 whole entry): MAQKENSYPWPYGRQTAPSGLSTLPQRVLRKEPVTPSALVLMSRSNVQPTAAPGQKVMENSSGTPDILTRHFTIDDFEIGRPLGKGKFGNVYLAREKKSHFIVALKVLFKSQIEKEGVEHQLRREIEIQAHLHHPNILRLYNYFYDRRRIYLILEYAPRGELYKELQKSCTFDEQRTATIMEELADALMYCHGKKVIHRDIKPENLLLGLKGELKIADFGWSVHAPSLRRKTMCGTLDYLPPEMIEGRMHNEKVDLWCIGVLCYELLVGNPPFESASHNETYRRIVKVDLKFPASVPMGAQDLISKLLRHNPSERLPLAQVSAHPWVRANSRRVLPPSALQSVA
Cytochrome P450 2C9, sequence (P11712 whole entry): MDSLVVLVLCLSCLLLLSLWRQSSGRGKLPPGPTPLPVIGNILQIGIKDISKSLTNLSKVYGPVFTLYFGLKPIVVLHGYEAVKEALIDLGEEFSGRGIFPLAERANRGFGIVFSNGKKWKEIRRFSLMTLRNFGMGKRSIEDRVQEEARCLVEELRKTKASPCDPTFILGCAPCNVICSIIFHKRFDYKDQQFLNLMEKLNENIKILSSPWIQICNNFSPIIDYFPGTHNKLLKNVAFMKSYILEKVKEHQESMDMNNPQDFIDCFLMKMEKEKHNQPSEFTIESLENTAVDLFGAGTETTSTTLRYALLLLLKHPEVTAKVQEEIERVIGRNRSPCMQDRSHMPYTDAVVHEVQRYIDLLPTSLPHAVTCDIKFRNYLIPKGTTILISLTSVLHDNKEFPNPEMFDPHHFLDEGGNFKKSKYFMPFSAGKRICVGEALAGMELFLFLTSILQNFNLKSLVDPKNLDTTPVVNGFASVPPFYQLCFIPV
DNA dC->dU-editing enzyme APOBEC-3A, sequence (P31941 whole entry): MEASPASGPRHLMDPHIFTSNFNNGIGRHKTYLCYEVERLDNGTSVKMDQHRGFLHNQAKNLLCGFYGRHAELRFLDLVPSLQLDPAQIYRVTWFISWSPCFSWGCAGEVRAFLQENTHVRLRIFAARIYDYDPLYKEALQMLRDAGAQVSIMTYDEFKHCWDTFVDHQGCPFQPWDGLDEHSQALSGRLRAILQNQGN
Proto-oncogene tyrosine-protein kinase receptor Ret, sequence (P07949 whole entry): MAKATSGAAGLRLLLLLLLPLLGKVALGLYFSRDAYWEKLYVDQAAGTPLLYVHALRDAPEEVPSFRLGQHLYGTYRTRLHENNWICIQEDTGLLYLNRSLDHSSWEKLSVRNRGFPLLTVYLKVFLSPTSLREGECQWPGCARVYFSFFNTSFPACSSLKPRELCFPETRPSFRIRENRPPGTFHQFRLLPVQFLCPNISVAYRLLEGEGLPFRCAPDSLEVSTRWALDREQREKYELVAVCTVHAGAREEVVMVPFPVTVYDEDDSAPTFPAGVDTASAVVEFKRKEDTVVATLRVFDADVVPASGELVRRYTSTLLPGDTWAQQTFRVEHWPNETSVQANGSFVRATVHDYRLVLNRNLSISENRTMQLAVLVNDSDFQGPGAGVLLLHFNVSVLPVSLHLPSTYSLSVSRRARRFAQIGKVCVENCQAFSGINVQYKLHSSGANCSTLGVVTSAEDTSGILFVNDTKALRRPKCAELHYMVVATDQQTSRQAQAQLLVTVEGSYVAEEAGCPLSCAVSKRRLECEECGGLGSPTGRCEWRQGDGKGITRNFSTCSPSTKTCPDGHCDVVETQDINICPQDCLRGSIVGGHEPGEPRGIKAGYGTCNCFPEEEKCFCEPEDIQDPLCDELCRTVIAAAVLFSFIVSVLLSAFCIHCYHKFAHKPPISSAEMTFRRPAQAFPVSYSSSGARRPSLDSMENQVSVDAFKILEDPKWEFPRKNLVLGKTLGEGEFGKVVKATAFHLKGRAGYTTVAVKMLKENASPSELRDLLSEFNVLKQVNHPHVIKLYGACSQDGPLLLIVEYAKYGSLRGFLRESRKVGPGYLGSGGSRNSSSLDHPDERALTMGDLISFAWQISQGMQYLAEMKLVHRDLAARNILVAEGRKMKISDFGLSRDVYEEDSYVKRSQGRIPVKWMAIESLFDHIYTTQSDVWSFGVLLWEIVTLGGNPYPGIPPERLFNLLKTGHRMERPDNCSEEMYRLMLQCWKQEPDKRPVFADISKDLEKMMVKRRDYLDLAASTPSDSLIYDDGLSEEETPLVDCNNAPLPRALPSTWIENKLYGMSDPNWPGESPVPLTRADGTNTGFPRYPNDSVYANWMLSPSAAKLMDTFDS
Cytochrome P450 3A4, sequence (P08684 whole entry): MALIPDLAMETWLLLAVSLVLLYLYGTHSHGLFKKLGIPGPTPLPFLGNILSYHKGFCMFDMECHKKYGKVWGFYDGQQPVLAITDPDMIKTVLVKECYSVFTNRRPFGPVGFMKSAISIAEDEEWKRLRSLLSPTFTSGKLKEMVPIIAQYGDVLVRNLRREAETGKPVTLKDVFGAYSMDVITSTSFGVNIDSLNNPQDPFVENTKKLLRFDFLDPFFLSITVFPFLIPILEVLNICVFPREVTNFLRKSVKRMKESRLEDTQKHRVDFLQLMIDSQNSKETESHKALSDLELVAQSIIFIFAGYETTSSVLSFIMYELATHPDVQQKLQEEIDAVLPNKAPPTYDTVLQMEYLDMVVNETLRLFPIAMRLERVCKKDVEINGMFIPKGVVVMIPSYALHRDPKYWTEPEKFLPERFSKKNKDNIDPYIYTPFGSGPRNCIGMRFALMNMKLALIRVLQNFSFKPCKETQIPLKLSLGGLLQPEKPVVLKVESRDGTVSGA
Mitochondrial peptide methionine sulfoxide reductase, sequence (P54149 whole entry): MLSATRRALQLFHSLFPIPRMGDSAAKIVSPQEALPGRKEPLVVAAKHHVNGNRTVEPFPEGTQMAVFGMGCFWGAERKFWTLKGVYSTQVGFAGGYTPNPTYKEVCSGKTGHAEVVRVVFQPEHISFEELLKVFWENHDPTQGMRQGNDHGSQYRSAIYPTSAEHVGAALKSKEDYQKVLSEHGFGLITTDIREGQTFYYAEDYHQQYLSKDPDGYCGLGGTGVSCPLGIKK

In general, EC50 refers to the concentration that produces a half-maximal response. The term AC50 denotes the concentration at which the activity in the assay is half-maximal. `O=[N+]([O-])c1ccc(/C=N/c2cccc3ccccc23)s1`: the figures for the EC50 in [1], in [2] and in [3] were > 60 µM (not active), > 104 µM (inactive) and 2.73 µM (active), respectively. Also, the concentration at half-maximal activity (AC50) in assay [4] is 7.99 µM (active). In assay [5], the IC50 was > 50 µM (not active).

Consider `CC(C)c1ccc(O)c(NC(=O)c2nc[nH]n2)c1`, for which the AC50 in [6] was 118 µM (active); on Cytochrome P450 2C19 it was 25.1 µM (inconclusive); at Cytochrome P450 2C9, 20 µM (inconclusive).

`CCOc1ccc(Oc2c(Cl)cnn(Cc3cccc4ccccc34)c2=S)cc1`: the IC50 in assay [7] and in [8] was 1.51 µM (active) each time.

Regarding `O=C(COC(=O)CNS(=O)(=O)c1cccc(Br)c1)Nc1ccccc1Sc1ccccc1`, the IC50 at Melanocortin receptor 4 [9] was 8.42 µM (active); in assay [10], > 64.6 µM (inactive).

Regarding `Cc1cnn(Cc2cccc3ccccc23)c(=O)c1C(C#N)c1ccccc1` (stereo not drawn), the IC50 in [7] and in assay [8] was 6.59 µM (active) each time.

Usually Ki stands for the dissociation constant of the complex between target and ligand, obtained from inhibition or displacement. For the molecule `CC(SCC1CCC2CC1C2(C)C)C(N)=O` (stereo not drawn), the inhibitory constant (Ki) in assay [11] was 100 µM (active).

With `c1ccc(-c2nc(NCc3cccnc3)c3ccccc3n2)cc1`, the concentration at half-maximal activity (AC50) was 17.8 µM (inconclusive) at Cytochrome P450 2D6 and 1 µM (inconclusive) at Cytochrome P450 3A4. Also, the IC50 in assay [12] is 25.1 µM (inactive); in [13], 8.37 µM (active).

Turning to `CCC(c1nc2ccccc2c(=O)n1CCCn1ccnc1)N1C(=O)c2ccccc2C1=O` (stereo not drawn), in assay [14], the IC50 is 35.2 µM (inactive).

Turning to `Cc1cc(C)nc(Nc2nc(C(N)Cc3ccc(C(F)(F)F)cc3)cs2)n1` (stereo not drawn), the EC50 on Melanocortin receptor 4 [15] is > 89.2 µM (inactive).

On to `Nc1ccc(S(=O)(=O)O)c2cccc(O)c12`, for which the inhibition constant Ki was 0.251 µM (active) on Aurora kinase B and 0.0794 µM (active) on Aurora kinase A.

As for `CC(C)CN(C(=O)COC(=O)c1cnc(Cl)c(Cl)c1)c1c(N)n(Cc2ccccc2)c(=O)[nH]c1=O`, the IC50 at Melanocortin receptor 4 [9] is 11.1 µM (inactive); in assay [10], > 64.6 µM (inactive).

Regarding `CCSC(=O)N(CC)C1CCCCC1` [CYCLOATE], the AC50 in assay [16] was 0.794 µM (inconclusive).

For the molecule `Cn1cccc1/C=C(/C#N)C(=O)Nc1cc(Cl)ccc1N1CCOCC1`, the IC50 in assay [17] and in assay [18] was > 99 µM (inactive) in each case.
